In PubChem BioAssay (NCI):
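Where inhibition never reached the appropriate level, the endpoint shown equals the highest concentration tested. Otherwise, values were interpolated linearly from a five-concentration, 48-hour dose response in 96-well plates. GI50: concentration for 50% inhibition of growth. At the TGI there is no net growth.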

Legend:
Test in all cases: NCI-60 cell line screen, 48 h
RXF 393 renal = tested on: RXF 393 renal
SW-620 colon = tested on: SW-620 colon
NCI-H226 lung = tested on: NCI-H226 lung
HOP-62 NSCLC = tested on: HOP-62 NSCLC
HCT-116 colon = tested on: HCT-116 colon
SF-295 CNS = tested on: SF-295 CNS
ACHN renal = tested on: ACHN renal
RPMI-8226 leukemia = tested on: RPMI-8226 leukemia
SK-MEL-5 melanoma = tested on: SK-MEL-5 melanoma
SNB-75 CNS = tested on: SNB-75 CNS

SMILES	TGI (RXF 393 renal)	TGI (SW-620 colon)	TGI (NCI-H226 lung)	TGI (HOP-62 NSCLC)	TGI (HCT-116 colon)	TGI (SF-295 CNS)	TGI (ACHN renal)	TGI (RPMI-8226 leukemia)	TGI (SK-MEL-5 melanoma)	TGI (SNB-75 CNS)	GI50 (RXF 393 renal)	GI50 (SW-620 colon)	GI50 (NCI-H226 lung)	GI50 (SK-MEL-5 melanoma)	GI50 (SNB-75 CNS)	GI50 (HOP-62 NSCLC)	GI50 (SF-295 CNS)	GI50 (ACHN renal)	GI50 (RPMI-8226 leukemia)	GI50 (HCT-116 colon)
CO/C(=N\N=C\c1ccc(C(F)(F)F)cc1)c1ccncc1	> 10 µM	> 10 µM	> 10 µM	> 10 µM	> 10 µM	> 10 µM	> 10 µM	> 10 µM	–	–	–	–	–	–	–	–	–	–	–	–
O=C(CCNC12CC3CC(CC(C3)C1)C2)c1ccccc1	53.5 µM	35.6 µM	> 100 µM	–	29.4 µM	50.2 µM	88.7 µM	26.4 µM	32.7 µM	65.3 µM	–	–	–	–	–	–	–	–	–	–
O=C(CCc1nc(=S)[nH][nH]1)Nc1ccc(Cl)c(Cl)c1	–	> 100 µM	> 100 µM	> 100 µM	> 100 µM	> 100 µM	> 100 µM	> 100 µM	55.9 µM	75.5 µM	–	–	–	–	–	–	–	–	–	–
OCC1=CC(NC2CC(CO)C(O)C(O)C2O)C(O)C(O)C1O (centres undefined)	> 100 µM	> 100 µM	> 100 µM	> 100 µM	> 100 µM	> 100 µM	> 100 µM	> 100 µM	–	> 100 µM	–	–	–	–	–	–	–	–	–	–
COc1cnc2c(c1)C(=O)c1c-2n(CCCN2CCOCC2)c(=O)c2cc(F)ccc12	0.913 µM	> 100 µM	1.14 µM	0.991 µM	–	0.864 µM	0.6 µM	0.804 µM	0.446 µM	9.7 µM	0.226 µM	0.149 µM	0.206 µM	0.169 µM	0.362 µM	0.187 µM	0.141 µM	0.177 µM	0.135 µM	–
COC(=O)CC[N+]1=CCC(c2ccccc2)(c2ccccc2)O1	> 100 µM	> 100 µM	> 100 µM	> 100 µM	> 100 µM	> 100 µM	> 100 µM	–	> 100 µM	–	–	–	–	–	–	–	–	–	–	–
CCN1CCN(Cc2ccc(NC(=O)c3cccc(C#Cc4cccc5[nH]nc(N)c45)c3)cc2C(F)(F)F)CC1	0.918 µM	1.59 µM	–	–	–	–	0.933 µM	3.04 µM	–	0.89 µM	0.287 µM	0.343 µM	–	–	0.184 µM	–	–	0.18 µM	0.702 µM	–
Cc1cc(NS(=O)(=O)c2ccc(Nc3c4ccccc4nc4c(C(=O)N5CCN(CCOS(C)(=O)=O)CC5)cccc34)cc2)no1	> 100 µM	–	> 100 µM	> 100 µM	> 100 µM	> 100 µM	> 100 µM	> 100 µM	> 100 µM	> 100 µM	–	–	–	–	–	–	–	–	–	–
COc1ccc(CC2c3cc4c(cc3CCN2C)OCO4)c(C=O)c1OC (centres undefined)	–	> 100 µM	> 100 µM	–	> 100 µM	> 100 µM	> 100 µM	> 100 µM	> 100 µM	> 100 µM	–	–	–	–	–	–	–	–	–	–
Cc1ccc(S(=O)(=O)OC[C@@H]2CO2)cc1	> 100 µM	> 100 µM	> 100 µM	> 100 µM	> 100 µM	–	> 100 µM	–	> 100 µM	> 100 µM	–	–	–	–	–	–	–	–	–	–
COc1cc2ccnc([C@@H](OC(=O)c3ccccc3)c3ccc(OC)c(OC)c3OC)c2cc1OC	> 100 µM	> 100 µM	> 100 µM	–	> 100 µM	> 100 µM	> 100 µM	> 100 µM	56.6 µM	> 100 µM	–	–	–	–	–	–	–	–	–	–
CCn1c(C)nn2c(=O)c3ccccc3nc2c1=O	–	> 100 µM	–	> 100 µM	> 100 µM	> 100 µM	> 100 µM	> 100 µM	> 100 µM	> 100 µM	–	–	–	–	–	–	–	–	–	–
CC1(C)C(=O)/C=C\C(=O)C(C)(C)C2=CC=C(O2)C(C)(C)C(=O)/C=C\C(=O)C(C)(C)C2=CC=C1O2	> 100 µM	> 100 µM	> 100 µM	> 100 µM	> 100 µM	> 100 µM	> 100 µM	–	–	–	–	–	–	–	–	–	–	–	–	–
C=CCO[C@H]1CO[C@H]2[C@@H]1OC[C@@H]2Oc1ccc(Nc2ccnc(Nc3ccc(O[C@H]4CO[C@H]5[C@@H]4OC[C@@H]5OCC=C)c(Cl)c3)n2)cc1Cl	3.1 µM	3.29 µM	72.3 µM	4.01 µM	3.44 µM	3.49 µM	3.31 µM	–	2.8 µM	3.31 µM	1.69 µM	1.77 µM	7.46 µM	1.46 µM	1.86 µM	1.93 µM	1.85 µM	1.77 µM	–	1.82 µM
Cc1c(C(=O)C/C(=N/NC(=O)c2ccccc2O)C(=O)Nc2ccccc2C(C)C)[n+](=O)c2ccccc2n1[O-]	> 100 µM	> 100 µM	> 100 µM	> 100 µM	> 100 µM	> 100 µM	> 100 µM	–	> 100 µM	> 100 µM	–	–	–	–	–	–	–	–	–	–
Cc1nc2c(ccc3ncccc32)[nH]1	> 100 µM	> 100 µM	–	> 100 µM	–	> 100 µM	> 100 µM	> 100 µM	> 100 µM	> 100 µM	–	–	–	–	–	–	–	–	–	–
CC(C)=CCC\C(C)=C/C=C/C(C)=C\C=C\C(C)=C/C=C/C=C(C)\C=C\C=C(C)/C=C/C=C(/C)CCC=C(C)C	> 100 µM	> 100 µM	> 100 µM	> 100 µM	> 100 µM	> 100 µM	> 100 µM	–	> 100 µM	> 100 µM	–	–	–	–	–	–	–	–	–	–
CC1CCc2nc[nH]c(=O)c21 (centres undefined)	> 100 µM	> 100 µM	> 100 µM	> 100 µM	> 100 µM	–	> 100 µM	> 100 µM	> 100 µM	> 100 µM	> 100 µM	> 100 µM	> 100 µM	> 100 µM	> 100 µM	> 100 µM	–	> 100 µM	> 100 µM	> 100 µM
OCc1cc2ccccc2c2c3c(ccc12)OCO3	–	118 µM	163 µM	131 µM	149 µM	154 µM	141 µM	94.4 µM	59.9 µM	64 µM	–	29 µM	23.7 µM	20.6 µM	18.4 µM	31.6 µM	33.8 µM	32.1 µM	26.2 µM	30.6 µM
CCOC(=O)C(C)(C)Oc1ccc2c(-c3ccccc3)cc(=O)oc2c1	–	> 100 µM	87.4 µM	63.7 µM	> 100 µM	> 100 µM	> 100 µM	49.9 µM	26.9 µM	56.5 µM	–	–	–	–	–	–	–	–	–	–
